Reference: patent US20020169264A1, “Polymers incorporating peptides” (The Council of the Queensland Institute of Medical Research, priority 1997, published 2002)
Read-outs that look alike come from different tables or passages of the source. Where no end group is shown, it is not given here. The star is where a group is joined. Acryloyl = C=CC(=O)*; Ahx = NCCCCCC(=O)O

Columns and labels:
lymph node T cells = assay: T cell proliferation assay, peptide monomer-primed lymph node T cells; assay type: cell-based, mice; conditions: FIG. 10
Text: Lymph node T cells were derived from pooled inguinal and popliteal lymph node cell suspensions of mice primed seven days previously with peptide. T cells were enriched by passage through nylon wool columns^24.
(§1) Female Balb/c mice, 6 to 8 weeks of age, were used. For antibody studies, animals were inoculated i.p. with synthetic peptide in monomeric or polymeric form and emulsified in complete Freund's adjuvant (CFA). Mice received 5 or 0.5 nmoles of monomeric peptide or the equivalent number of moles of determinant within a polymer. For T-cell studies, mice were inoculated s.c. in the hind footpads with a total of 10 nmoles of T-cell determinant in CFA.
T cells were cultured (at a concentration of 3×10^5 cells/well for lymph node T cells and 1×10^4/well for the T-cell clone) in 96-well nmicrotitre trays (Nunc, Denmark) in the presence of syngenic γ-irradiated (2,200 R, ^60Co source) spleen cells as a source of antigen presenting cells, together with antigen in a total volume of 250μl^22, 23, The culture medium was RPMI 1640 supplemented with 10% heat inactivated (56° C., 30min) fetal calf serum, 2mM glutamine, 2mM sodium pyruvate, 0.1mM 2-mercaptoethanol, 30μg/ml gentamicin, 100 I.U./ml penicillin and 100μg/ml streptomycin. […] Cells were then harvested onto glass fibre filters and incorporation of ^3H-thymidine was measured on a Hewlett Packard Matrix 9600 direct β-counter.

Balb/c mice = assay: Immunogenicity in Balb/c mice, antibody titre by ELISA; assay type: in vivo; conditions: for antibody response (levels of antibody elicited): 0.5 nmole dose, FIG. 11B
Text: as §1
Enzyme-linked immunosorbent assays (ELISAs) were performed as described^23 using microtitre plates coated with a solution of 5μg/ml peptide or polymer antigen. Bound antibody was detected by incubation with horseradish peroxidase-conjugated rabbit immunoglobulin (Ig) directed against mouse Ig (DAKO, Denmark) for 1.5h followed, after washing, with substrate (0.2mM 2,2′-azino-bis 3-ethylbenzthiazoline-sulphonic acid in 50mM citric acid pH4.0 containing 0.004% v/v hydrogen peroxide). The absorbance at a wavelength of 405nm was determined using a Labsystems Multiscan Multisoft microplate reader (Pathtech Diagnostics Pty. Ltd., Aust.) and antibody titres were expressed as the reciprocal of the antibody dilution giving an absorbance of 0.25, which corresponds to at least five times the background value.

MAb 1/1 = assay: ELISA, MAb 1/1 binding to coated peptide or polymer; parameters: species or system mouse; conditions: persulphate to peptide ratios 0.1:1 to 1,000:1, in the presence of acrylamide; FIG. 8
MAb 2/1 = assay: ELISA, MAb 2/1 binding to coated peptide or polymer; parameters: species or system mouse
[1] = tested on: virus infected P815 mastocytoma cells; assay type: in vivo, BALB/c mice

Question: For ALNNRFQIKGVELKS [P3], which “recognition by polyclonal lymph node T cells raised against monomeric T-cell determinant peptide” value (lymph node T cells) is on record?
Answer: equal efficiency

Question: How did the “antibody response (levels of antibody elicited)” value (Balb/c mice) turn out when GMRNVPERKQT [P2] was run?
Answer: no antibody

Question: For PKYVKQNTLKLATGMRNVPEKQT [P5], which “antigenic activity (MAb 1/1 binding) after exposure to ammonium persulphate” value (MAb 1/1) is on record?
Answer: little or no effect on antigenic activity

Question: What about the “antigenic activity (MAb 2/1 binding) after exposure to ammonium persulphate” value (MAb 2/1; persulphate to peptide ratios 0.1:1 to 1,000:1, in the presence of acrylamide, FIG. 8) of the same substance?
Answer: little or no effect on antigenic activity

Question: What about the primary antibody response (Balb/c mice; 5 nmoles of peptide epitope, i.p. in CFA) of the same substance?
Answer: very weak

Question: What about the “rise of antibody response following the second inoculation” value (Balb/c mice; 5 nmoles of peptide epitope, secondary vs primary) of the same substance?
Answer: ~10 fold

Question: What does the source list for TLKLATG [P1]?
Answer: binding of MAb 2/1 to coated polymers (MAb 2/1; FIG. 9): slightly reduced ability to interact with MAb; antibody response (levels of antibody elicited) (Balb/c mice): no antibody

Question: TYQRTRALV [P7] was tested. Which “CTL response (priming)” value ([1]; mouse, in vivo, sc) did it give?
Answer: did

Question: With “acryloyl-Ahx-CTL: acryloyl-Ahx derivative of the CTL epitope TYQRTRALV, not polymerised ({Acryloyl-Ahx}-TYQRTRALV)” as the substance, how does the “CTL response (priming)” value ([1]; 10 μg peptide s.c. in CFA, virus infected targets, FIG. 15) read?
Answer: did not induce a CTL response
